Laboratory results as given in patent publication US11180462B2, “Microbiocidal oxadiazole derivatives” (SYNGENTA PARTICIPATIONS AG, priority 2015, dated 2021).

Assays:
[1] = tested on: Puccinia recondita f. Sp. Tritici; assay: Fungicidal activity against Puccinia recondita f. sp. tritici / wheat / leaf disc preventative (brown rust); assay type: in vivo; settings: foliar, 200 ppm in the applied formulation, wheat leaf segments, preventative, compared to untreated control leaf disks, read-out: disease control
Method in brief: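 200 ppm spray on wheat cv. Kanzler leaf segments; spore inoculation +1 day; 19° C., 75% rh, 12 h/12 h light cycle; single rating of % control vs untreated at 7 to 9 days.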

[2] = tested on: Puccinia recondita f. Sp. Tritici; assay: Fungicidal activity against Puccinia recondita f. sp. tritici / wheat / leaf disc curative (brown rust); assay type: in vivo; settings: foliar, 24 h, 200 ppm in the applied formulation, wheat leaf segments, curative (applied 1 day after inoculation), compared to untreated control leaf disks, read-out: disease control
Protocol: Leaf disks or leaf segments of various plant species are cut from plants grown in a greenhouse. The cut leaf disks or segments are placed in multiwell plates (24-well format) onto water agar. The leaf disks are sprayed with a test solution before (preventative) or after (curative) inoculation. Compounds to be tested are prepared as DMSO solutions (max. 10 mg/ml) which are diluted to the appropriate concentration with 0.025% Tween20 just before spraying. The inoculated leaf disks or segments are incubated under defined conditions (temperature, relative humidity, light, etc.) according to the respective test system. A single evaluation of disease level is carried out 3 to 14 days after inoculation, depending on the pathosystem. Percent disease control relative to the untreated check leaf disks or segments is then calculated.
Fungicidal Activity Against Puccinia recondita f. Sp. Tritici/Wheat/Leaf Disc Curative (Brown Rust)
Wheat leaf segments cv. Kanzler are placed on agar in multiwell plates (24-well format). The leaf segments are then inoculated with a spore suspension of the fungus. Plates were stored in darkness at 19° C. and 75% relative humidity. The formulated test compound diluted in water was applied 1 day after inoculation. The leaf segments were incubated at 19° C. and 75% relative humidity under a light regime of 12 hours light/12 hours darkness in a climate cabinet and the activity of a compound was assessed as percent disease control compared to untreated when an appropriate level of disease damage appears in untreated check leaf segments (6 to 8 days after application).
The following compounds at 200 ppm in the applied formulation give at least 80% disease control in this test when compared to untreated control leaf disks under the same conditions, which show extensive disease development.

[3] = tested on: Glomerella lagenarium (Colletotrichum lagenarium); assay: Fungicidal activity against Glomerella lagenarium (Colletotrichum lagenarium) liquid culture / cucumber / preventative (anthracnose); assay type: cell-based; settings: Colletotrichum orbiculare; 20 ppm in the applied formulation; liquid culture (PDB), growth inhibition measured photometrically after 3 to 4 days; compared to untreated control; read-out: disease control
Method in brief: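 Percent activity against the untreated check was derived from photometric growth measurements made 2 to 7 days after conidia in potato dextrose broth were combined with compound at 20 ppm. Cultures were kept dark at 24 °C and 96% humidity.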

Row | Structure (SMILES) | pest or weed control at 200 ppm [1] [%] | pest or weed control at 200 ppm [2] [%] | inhibition of growth at 20 ppm [3] [%]
1 | CN(Cc1ccc(-c2noc(C(F)(F)F)n2)cc1)C(=O)N(C)C1CCC1 [Compound 3.82, 1-cyclobutyl-1,3-dimethyl-3-[[4-[5-(trifluoromethyl)-1,2,4-oxadiazol-3-yl]phenyl]methyl]urea] | ≥ 80 | ≥ 80 | ≥ 80
2 | CCOC(=O)N(Cc1ccc(-c2noc(C(F)(F)F)n2)cc1)OC [Compound 2.1, ethyl N-methoxy-N-[[4-[5-(trifluoromethyl)-1,2,4-oxadiazol-3-yl]phenyl]methyl]-carbamate] | ≥ 80 | ≥ 80 | ≥ 80
3 | CCC(COC)C(=O)N(CCOC)Cc1ccc(-c2noc(C(F)(F)F)n2)cc1 (stereo not shown) [Compound 1.353, N-(2-methoxyethyl)-2-(methoxymethyl)-N-[[4-[5-(trifluoromethyl)-1,2,4-oxadiazol-3-yl]phenyl]methyl]-butanamide] | ≥ 80 | ≥ 80 | 
4 | COCCCC(=O)N(Cc1ccc(-c2noc(C(F)(F)F)n2)cc1)CC1CCCO1 (stereo not shown) [Compound 1.452, 4-methoxy-N-(tetrahydrofuran-2-ylmethyl)-N-[[4-[5-(trifluoromethyl)-1,2,4-oxadiazol-3-yl]phenyl]methyl]-butanamide] | ≥ 80 | ≥ 80 | ≥ 80
5 | CCN(Cc1ccc(-c2noc(C(F)(F)F)n2)cc1)C(=O)N1CCCO1 [Compound 3.87, N-ethyl-N-[[4-[5-(trifluoromethyl)-1,2,4-oxadiazol-3-yl]phenyl]methyl]-isoxazolidine-2-carboxamide] | ≥ 80 | ≥ 80 | ≥ 80
6 | CCCC(=O)N(Cc1ccc(-c2noc(C(F)(F)F)n2)cc1)Cc1ccco1 [Compound 1.465, N-(2-furylmethyl)-N-[[4-[5-(trifluoromethyl)-1,2,4-oxadiazol-3-yl]phenyl]methyl]-butanamide] | ≥ 80 | ≥ 80 | ≥ 80
7 | CCC(COC)C(=O)N(Cc1ccc(-c2noc(C(F)(F)F)n2)cc1)CC1CC1 (stereo not shown) [Compound 1.237, N-(cyclopropylmethyl)-2-(methoxymethyl)-N-[[4-[5-(trifluoromethyl)-1,2,4-oxadiazol-3-yl]phenyl]methyl]-butanamide] | ≥ 80 | ≥ 80 | ≥ 80
8 | O=C(C1OCCO1)N(Cc1ccc(-c2noc(C(F)(F)F)n2)cc1)CC1CCCO1 (stereo not shown) [Compound 1.447, N-(tetrahydrofuran-2-ylmethyl)-N-[[4-[5-(trifluoromethyl)-1,2,4-oxadiazol-3-yl]phenyl]methyl]-1,3-dioxolane-2-carboxamide] | ≥ 80 | ≥ 80 | ≥ 80
9 | C=CCN(Cc1ccc(-c2noc(C(F)(F)F)n2)cc1)C(=O)CC#N [Compound 1.490, N-allyl-2-cyano-N-[[4-[5-(trifluoromethyl)-1,2,4-oxadiazol-3-yl]phenyl]methyl]-acetamide] | ≥ 80 | ≥ 80 | ≥ 80
10 | COCCC(=O)N(Cc1ccc(-c2noc(C(F)(F)F)n2)cc1)CC1CCCO1 (stereo not shown) [Compound 1.422, 3-methoxy-N-(tetrahydrofuran-2-ylmethyl)-N-[[4-[5-(trifluoromethyl)-1,2,4-oxadiazol-3-yl]phenyl]methyl]-propanamide] | ≥ 80 | ≥ 80 | ≥ 80
11 | C#CCN(C(=O)N(CC)Cc1ccc(-c2noc(C(F)(F)F)n2)cc1)C1CC1 [Compound 3.99, 1-cyclopropyl-3-ethyl-1-prop-2-ynyl-3-[[4-[5-(trifluoromethyl)-1,2,4-oxadiazol-3-yl]phenyl]methyl]urea] | ≥ 80 | ≥ 80 | ≥ 80
12 | COCCN(Cc1ccc(-c2noc(C(F)(F)F)n2)cc1)C(=O)C1CSC1 [Compound 1.334] | ≥ 80 | ≥ 80 | ≥ 80
13 | CCN(Cc1ccc(-c2noc(C(F)(F)F)n2)cc1)C(=O)N(C)CCOC [Compound 3.85, 1-ethyl-3-(2-methoxyethyl)-3-methyl-1-[[4-[5-(trifluoromethyl)-1,2,4-oxadiazol-3-yl]phenyl]methyl]urea] | ≥ 80 | ≥ 80 | ≥ 80
14 | COCCC(=O)N(CCO)Cc1ccc(-c2noc(C(F)(F)F)n2)cc1 [Compound 1.713, N-(2-hydroxyethyl)-3-methoxy-N-[[4-[5-(trifluoromethyl)-1,2,4-oxadiazol-3-yl]phenyl]methyl]-propanamide] | ≥ 80 | ≥ 80 | ≥ 80
15 | CC#CC(=O)N(OC)C(C)c1ccc(-c2noc(C(F)(F)F)n2)cc1 (stereo not shown) [Compound 1.248, N-methoxy-N-[1-[4-[5-(trifluoromethyl)-1,2,4-oxadiazol-3-yl]phenyl]ethyl]but-2-ynamide] | ≥ 80 | ≥ 80 | ≥ 80
16 | O=C(C1CCCO1)N(Cc1ccc(-c2noc(C(F)(F)F)n2)cc1)CC1CCCO1 (stereo not shown) [Compound 1.442, N-(tetrahydrofuran-2-ylmethyl)-N-[[4-[5-(trifluoromethyl)-1,2,4-oxadiazol-3-yl]phenyl]methyl]-tetrahydrofuran-2-carboxamide] | ≥ 80 | ≥ 80 | ≥ 80
17 | CCCON(Cc1ccc(-c2noc(C(F)(F)F)n2)cc1)C(=O)C(C)CC (stereo not shown) [Compound 1.308, 2-methyl-N-propoxy-N-[[4-[5-(trifiuoromethyl)-1,2,4-oxadiazol-3-yl]phenyl]methyl]-butanamide] | ≥ 80 | ≥ 80 | ≥ 80
18 | CNC(=O)CN(C)C(=O)N(C)Cc1ccc(-c2noc(C(F)(F)F)n2)cc1 [Compound 3.68, N-methyl-2-[methyl-[methyl-[[4-[5-(trifluoromethyl)-1,2,4-oxadiazol-3-yl]phenyl]methyl]-carbamoyl]-amino]acetamide] | ≥ 80 | ≥ 80 | 
19 | CON(Cc1ccc(-c2noc(C(F)(F)F)n2)nc1)C(=O)C1CCCO1 (stereo not shown) [Compound 1.789, N-methoxy-N-[[6-[5-(trifluoromethyl)-1,2,4-oxadiazol-3-yl]-3-pyridyl]methyl]-tetrahydrofuran-2-carboxamide] | ≥ 80 | ≥ 80 | 
20 | COCCN(Cc1ccc(-c2noc(C(F)(F)F)n2)cc1)C(=O)C1CCCN1C(C)=O (stereo not shown) [Compound 1.357, 1-acetyl-N-(2-methoxyethyl)-N-[[4-[5-(trifluoromethyl)-1,2,4-oxadiazol-3-yl]phenyl]methyl]-pyrrolidine-2-carboxamide] | ≥ 80 | ≥ 80 | 
21 | CON(Cc1ccc(-c2noc(C(F)(F)F)n2)cc1)C(=O)Cc1ccc(C#N)cc1 [Compound 1.52, 2-(4-cyanophenyl)-N-methoxy-N-[[4-[5-(trifluoromethyl)-1,2,4-oxadiazol-3-yl]phenyl]methyl]-acetamide] | ≥ 80 | ≥ 80 | 
22 | C#CCN(Cc1ccc(-c2noc(C(F)(F)F)n2)cc1)C(=O)C1CCSCC1 [Compound 1.188, N-prop-2-ynyl-N-[[4-[5-(trifluoromethyl)-1,2,4-oxadiazol-3-yl]phenyl]methyl]-tetrahydrothiopyran-4-carboxamide] | ≥ 80 | ≥ 80 | 
23 | CCN(Cc1ccc(-c2noc(C(F)(F)F)n2)cc1)C(=O)N(C)CC(=O)NC [Compound 3.86, 2-[[ethyl-[[4-[5-(trifluoromethyl)-1,2,4-oxadiazol-3-yl]phenyl]methyl]-carbamoyl]-methyl-amino]-N-methyl-acetamide] | ≥ 80 | ≥ 80 | 
24 | CON(Cc1ccc(-c2noc(C(F)(F)F)n2)cc1)C(=O)CN [Compound 1.788, [2-[methoxy-[[4-[5-(trifluoromethyl)-1,2,4-oxadiazol-3-yl]phenyl]methyl]-amino]-2-oxo-ethyl]ammonium; chloride] | ≥ 80 | ≥ 80 | 
